Assays:
[1] = tested on: OCI-AML3 (NRAS-Q61L); experiment: Anti-proliferation assay on OCI-AML3; format: cell-based, human; details: Homo sapiens, OCI-AML-3; 72 h treatment; average with SD (n = 3, duplicate)
Experimental: (§1) Ba/F3-parental, OCI-AML3, U397 cells were purchased from DSMZ. MDA-MB-231, HCT-116, AsPC-1, H358, HT-29, SW480, and DU-145 cells were obtained from KCLB. MDA-MB-468 cells were obtained from ATCC. All cells were maintained in RPMI with 10% FBS and antibiotics. Cells were grown in a humidified 5% CO2 incubator at 37°C. Ba/F3-parental cells were grown in the presence of 10 ng/ml IL-3. NRAS-G12D or NRAS-G12V transformed Ba/F3 cell lines (Ba/F3-NRAS-G12D, and Ba/F3-NRAS-G12V, respectively) were cultured without IL-3, which were established by the procedure described as previously ([30]).
(§2) Approximately 3.0 × 10^3 cells/well were seeded in a 96-well cell culture plate. After stabilization, 1/3 serially diluted compound in DMSO was treated to the cell. […] All GI50 values were obtained in duplicate with three independent assays and averages with standard deviation are presented.

[2] = tested on: Ba/F3 cells transformed with mtRAS (NRAS-G12D and NRAS-G12V) and cancer cells harboring mtRAS; experiment: Flow cytometry cell cycle analysis (PI); format: cell-based; details: 1 μM, 24 h
Experimental: For cell cycle analysis, cells (1 × 10^6 cells per sample) were incubated with each compounds for 24 h. Cells were subjected to brief ice-cold PBS washing and fixed with 70% EtOH for 1 h at −20°C. Cells were stained with PI/RNase staining solution (Cell signaling, #4087) and incubated 30 min at room temperature in a dark condition. Stained cells were subjected to flow cytometry analysis. Debris and unstained cells and were excluded by gating.
Figure 5 The effects of SIJ1795 and SIJ1772 on cell cycle arrest against in (A, B) Ba/F3 cells transformed with mtRAS (NRAS-G12D and NRAS-G12V) and (C, D) cancer cells harboring mtRAS. Cells were treated with 1 µM of SIJ1795, SIJ1772, and GNF-7 for 24 h. Cells were stained by PI and analyzed the percentage of cell cycle phase by flow cytometry.

[3] = tested on: DU-145 (KRAS-G12V); experiment: Anti-proliferation assay on DU-145; format: cell-based; details: Homo sapiens, DU-145; 72 h treatment; average with SD (n = 3, duplicate)
Experimental: as §1, §2

[4] = tested on: H358 (KRAS-G12C); experiment: Anti-proliferation assay on H358; format: cell-based; details: Homo sapiens, NCI-H358; 72 h treatment; average with SD (n = 3, duplicate)
Experimental: as §1, §2

[5] = tested on: AsPC-1 (KRAS-G12D); experiment: Anti-proliferation assay on AsPC-1; format: cell-based; details: Homo sapiens, ASPC1; 72 h treatment; average with SD (n = 3, duplicate)
Experimental: as §1, §2

[6] = tested on: Ba/F3-NRAS-G12V cells; experiment: Anti-proliferation assay (CellTiter Glo) on Ba/F3-NRAS-G12V; format: cell-based; details: Mus musculus, BaF3; 72 h treatment; average with SD (n = 3, duplicate)
Experimental: as §1, §2

[7] = tested on: phospho-AKT, -MEK, -ERK in Ba/F3-NRAS-G12D and Ba/F3-NRAS-G12V cells; experiment: Western blot, phospho-AKT, -MEK, -ERK in Ba/F3 cells transformed with mtRAS; format: cell-based; details: 2 h; for inhibitory capabilities on phosphorylation level of MEK, ERK, and AKT at 1 µM relative to GNF-7: Ba/F3 mtRAS cells; for phospho-AKT, -MEK, -ERK levels at 10 µM: Ba/F3 cells transformed with mtRAS (NRAS-G12D and NRAS-G12V)
Experimental: (§3) Approximately 1 × 10^6 cells per well were seeded in a 6-well cell culture plate. After cell adhesion, each compounds were treated for 2 h with indicated concentration and conducted brief washing twice by ice-cold PBS. Cells were lysed by NP40 buffer (50 mM Tris–HCl pH 7.4, 1% NP40, 2 mM EDTA, 150 mM NaCl) in the presence of protease inhibitor cocktail (Roche, #11873580001) and phosphatase inhibitor cocktail (Roche, #04906837001). Each sample was loaded with same amount of total protein and separated by SDS-PAGE gel. After transferred to nitrocellulose membrane, blocking with 5% skim milk (in TBS/T) was followed. The membrane was incubated 4°C for overnight with uniformly diluted primary antibodies at 1:1,000 (v/v) in TBS/T. The following primary antibodies were used: anti-p-AKT (Cell Signaling, #9271), anti-p-ERK1/2 (Cell Signaling, #4370), anti-PARP (Cell Signaling, #9542), anti-GAPDH (Cell Signaling, #5174), anti-p-70S6K1 (Cell Signaling, #9204), anti-p-JNK(Cell Signaling, #9251), anti-p-p38 (Cell Signaling, #9216), and anti-p-MEK1/2 (Santa Cruz, sc-81503). Each membrane was incubated with HRP-conjugated goat anti-Rabbit secondary antibody (Gendepot, SA002-500) or HRP-conjugated goat anti-Mouse secondary antibody (Gendepot, SA001-500) for 1 h (1:10,000, v/v) in TBS/T at room temperature and followed ECL solution treatment. Chemiluminescence signals were detected by ImageQuant™ LAS 4000 (GE Healthcare).
Figure 1 The effects of (A) SIJ1795 and (B) SIJ1772 on MAPK and PI3K/AKT signaling pathways in Ba/F3 cells transformed with mtRAS (NRAS-G12D and NRAS-G12V). Cells were treated with 0.1, 1, and 10 μM of SIJ1795, SIJ1772, and GNF-7 for 2 h. Western blot analysis was conducted to evaluate the phospho-AKT, -MEK, -ERK levels. GAPDH was used as the loading control.

[8] = tested on: U937 (KRAS, NRAS-wt); experiment: Anti-proliferation assay on U937; format: cell-based; details: Homo sapiens, U-937; 72 h treatment; average with SD (n = 3, duplicate)
Experimental: as §1, §2

[9] = tested on: phospho-70S6K1, -JNK, -p38 in Ba/F3-NRAS-G12D and OCI-AML cells; experiment: Western blot, ACK1 and GCK downstream signaling (phospho-70S6K1, -JNK, -p38); format: cell-based; details: 0.1, 1, 10 μM for 2 h
Experimental: as §3, with “Each membrane was incubated with HRP-conjugated goat anti-Rabbit secondary antibody (Gendepot, SA002-500) or HRP-conjugated goat anti-Mouse secondary antibody (Gendepot, SA001-500) for 1 h (1:10,000, v/v) in TBS/T at room temperature and followed ECL solution treatment.” left out, “Healthcare). […]” for “Healthcare).”

[10] = tested on: Ba/F3-NRAS-G12D cells; experiment: Anti-proliferation assay (CellTiter Glo) on Ba/F3-NRAS-G12D; format: cell-based; details: Mus musculus, BaF3; 72 h treatment; average with SD (n = 3, duplicate)
Experimental: as §1, §2

[11] = tested on: HT-29 (KRAS-Q61L); experiment: Anti-proliferation assay on HT-29; format: cell-based; details: Homo sapiens, HT-29; 72 h treatment; average with SD (n = 3, duplicate)
Experimental: as §1, §2

| SMILES | GI50 [1] | cell cycle arrest [2] | GI50 [3] | GI50 [4] | GI50 [5] | GI50 [6] | inhibitory capabilities on phosphorylation level of MEK, ERK, and AKT at 1 µM relative to GNF-7 [7] | phospho-AKT, -MEK, -ERK levels at 10 µM [7] | GI50 [8] | phosphorylation of 70S6K1 (downstream molecule of ACK), JNK, p38 (downstream molecule of GCK) [9] | GI50 [10] | GI50 [11] |
| --- | --- | --- | --- | --- | --- | --- | --- | --- | --- | --- | --- | --- |
| CCN1CCN(c2cccc(Nc3ncc4c(n3)N(C)C(=O)N(c3cc(NC(=O)c5cccc(C(F)(F)F)c5)ccc3C)C4)c2)CC1 [SIJ1795, N-(3-(7-((3-(4-Ethylpiperazin-1-yl)phenyl)amino)-1-methyl-2-oxo-1,4-dihydropyrimido[4,5-d]pyrimidin-3(2H)-yl)-4-methylphenyl)-3-(trifluoromethyl)benzamide] | 0.052 ± 0.052 µM | G0/G1 arrest was induced | 0.077 ± 0.043 µM | 0.203 ± 0.012 µM | 0.144 ± 0.023 µM | 0.075 ± 0.045 µM | slightly increased relative to that of GNF-7 | completely inhibited | 1 ± 0.126 µM | effectively inhibited | 0.082 ± 0.031 µM | 0.154 ± 0.042 µM |
| Cc1ccc(NC(=O)c2cccc(C(F)(F)F)c2)cc1N1Cc2cnc(Nc3cnn(C4CCN(S(C)(=O)=O)CC4)c3)nc2N(C)C1=O [SIJ1772, N-(4-Methyl-3-(1-methyl-7-((1-(1-(methylsulfonyl)piperidin-4-yl)-1H-pyrazol-4-yl)amino)-2-oxo-1,4-dihydropyrimido[4,5-d]pyrimidin-3(2H)-yl)phenyl)-3-(trifluoromethyl)benzamide] | 0.065 ± 0.029 µM | G0/G1 arrest was induced | 0.029 ± 0.003 µM | 0.125 ± 0.017 µM | 0.17 ± 0.032 µM | 0.096 ± 0.009 µM | slightly increased relative to that of GNF-7 | completely inhibited | 9.59 ± 0.832 µM | effectively inhibited | 0.077 ± 0.016 µM | 0.192 ± 0.094 µM |

Source: article PMC8695447, “Novel Small Molecules Capable of Blocking mtRAS-Signaling Pathway” (Frontiers in Oncology, 2021)
